We go through 5 compounds from paper PMC2858705 (PLoS Pathogens, 2010).

As usually defined, the Ki is a measure of affinity in units of concentration, obtained from inhibition or displacement.

The subject of assay [1] is SARS-CoV. The conditions noted are these: infected cells; cited from earlier work.
Assay [2] addresses SARS-CoV nsp10/nsp16 2'O-MTase (Severe acute respiratory syndrome coronavirus, UniProt P0C6X7). The assay is described as follows: biochemical. The assay is classed as biochemical.
For assay [3], the target named is SARS-CoV nsp14 N7-MTase (Severe acute respiratory syndrome coronavirus, UniProt P0C6X7). The assay can be described thus: biochemical. It is filed as biochemical.
Assay [4] deals with VV:2'O-MTase. The conditions noted are these: cited from earlier work.
In assay [5] the target is VV:N7-MTase. The conditions noted are these: cited from earlier work.
The target in assay [6] is DV:NS5MTase. The conditions noted are these: read-out: IC50 2'O-MTase activity of DV:NS5MTase; cited from earlier work.

Structures are written as SMILES. Several values for one entry are separate records, joined by “and”; a condition that tells them apart may be missing. Equal values may be shown once. Read-outs that look alike come from different tables or passages of the source.

On to `O=C(O)C1=CC(=C(c2ccc(O)c(C(=O)O)c2)c2ccc(O)c(C(=O)O)c2)C=CC1=O` [ATA, aurintricarboxylic acid], for which, in assay [1], the “inhibition of SARS-CoV replication” value is reported as “inhibit SARS-CoV replication”. In assay [2], the “IC50 2'O-MTase activity of nsp10/nsp16” value is given as “micromolar range” and the “inhibition of nsp16/nsp10 2'O-MTase at 100 µM (in words)” value was “efficiently inhibited”. Moreover, the IC50 in assay [2] (IC50 2'O-MTase activity of nsp10/nsp16) was 2.1 µM and 6.4 µM. Moreover, in assay [3], the “IC50 N7-MTase activity of nsp14” value was “micromolar range” and the “inhibition of nsp14 N7-MTase at 100 µM (in words)” value is “efficiently inhibited”. For the same compound, in assay [3] (IC50 N7-MTase activity of nsp14), the IC50 is 6.4 µM and 2.1 µM.

Regarding `Nc1ncnc2c1ncn2[C@@H]1O[C@H](CSCC[C@H](N)C(=O)O)[C@@H](O)[C@H]1O` [AdoHcy, S-adenosyl-l-homocysteine], the “inhibition of nsp16/nsp10 2'O-MTase at 100 µM (in words)” value in assay [2] is reported as “efficiently inhibited”. Moreover, the IC50 was determined as 12 µM in assay [2] (read-out: IC50 2'O-MTase activity of nsp10/nsp16) and 16 µM in assay [3] (read-out: IC50 N7-MTase activity of nsp14). The Ki in assay [4] was 500 nM; in assay [5], 1000 nM. Moreover, in assay [3], the “inhibition of nsp14 N7-MTase at 100 µM (in words)” value is on record as “efficiently inhibited”.

`Nc1nc2c(ncn2[C@@H]2O[C@H](COP(=O)(O)OP(=O)(O)OP(=O)(O)OC[C@H]3O[C@@H](n4cnc5c(N)ncnc54)[C@H](O)[C@@H]3O)[C@@H](O)[C@H]2O)c(=O)[nH]1` [GpppA]: the “inhibition of nsp16/nsp10 2'O-MTase at 100 µM” value in assay [2] is given as 50%. The “inhibition of nsp14 N7-MTase at 100 µM” value in assay [3] is 50%.

For the compound `Cn1c[n+]([C@@H]2O[C@H](COP(=O)(O)OP(=O)(O)OP(=O)(O)OC[C@H]3O[C@@H](n4cnc5c(N)ncnc54)[C@H](O)[C@@H]3O)[C@@H](O)[C@H]2O)c2nc(N)[nH]c(=O)c21` [^7MeGpppA], in assay [2], the “inhibition of nsp16/nsp10 2'O-MTase at 100 µM” value was 50%. Moreover, the “inhibition of nsp14 N7-MTase at 100 µM” value in assay [3] is reported as 50%.

In the case of `Nc1ncnc2c1ncn2[C@@H]1O[C@H](C[C@@H](N)CC[C@H](N)C(=O)O)[C@@H](O)[C@H]1O` [sinefungin, adenosyl-ornithine], the IC50 is 420 nM and 630 nM in assay [6]; 39.5 nM in assay [4]; 12 nM in assay [5].
